Experimental data as given in publication PMC3610344, “Differential Cytotoxicity Responses by Dog and Rat Hepatocytes to Phospholipogenic Treatments” (Journal of Toxicology, 2013).
Like-named read-outs stand apart in the source and are kept apart here.

Columns and labels:
rat liver = assay: Preclinical in vivo toxicology studies in rat
dog liver = assay: Preclinical in vivo toxicology studies in dog
dog hepatocytes [1] = assay: Cell survival of primary dog hepatocytes (Cellomics Arrayscan); assay type: cell-based; details: for IC50: 24 h treatment
Excerpt: (§1) Primary rat hepatocytes were freshly isolated from Han Wistar rats at AstraZeneca, using the collagenase perfusion method (Selgen, PO, 1976). Primary dog hepatocytes were isolated at AstraZeneca, or purchased from CellzDirect Corp. (Durham, NC), which also uses a collagenase perfusion method. Cells were centrifuged and resuspended in hepatocyte culture media, consisting of Williams E basal media (Sigma-Aldrich, Inc., St. Louis, MO) 5% Hyclone fetal bovine serum (ThermoFisher Scientific Inc., Rockford, IL), 15 mM HEPES (Mediatech Inc., Manassas, VA), 100 units/mL penicillin/streptomycin, 200 μM l-glutamine, 1X ITS (insulin, transferrin, selenium solution from Mediatech Inc.), and 30 nM dexamethasone (Sigma-Aldrich). Cells were suspended at 2.5 × 10^5 cell/mL and added to BD Biocoat collagen I coated microtiter plates at 100 μL/well, for a final count of 25,000 cells/well. Selection criterion for use of initial isolates was 85% minimal viability. Cells were incubated at 37°C in a CO2 incubator for 4 h to allow for cell attachment. Media was aspirated and replaced with hepatocyte culture media without fetal bovine serum and supplemented with 150 μg/mL Matrigel collagen matrix (BD Inc.). Cells were incubated in a CO2 incubator for 24 h, the media was replaced with hepatocyte culture media, and the cells were incubated for an additional 24 h. Compounds were solubilized in DMSO, water, or ethanol to 1000X stock and then diluted to 1X in media. All conditions contained equal concentrations of vehicle.
(§2) In a modification of the procedure described by Morelli et al., hepatocytes were treated with drugs diluted into culture media containing 12 μg/mL NBD-PE (N-(7-nitrobenz-2-oxa-1,3-diazol-4-yl)-1,2-dihexadecanoyl-sn-glycero-3-phosphoethanolamine, triethylammonium salt) for 24 hours. At the end of the treatment period, Sytox orange (100 nM Invitrogen Inc.) was added to cells for 20 minutes prior to fixation. This fluorescent dye stains only cells with compromised cell membranes thereby enabling their exclusion from NBD-PE cell quantitation by the Cellomics ArrayScan instrument. Media were aspirated, cells were washed with 1X PBS and fixed by the addition of 100 μL PBS containing 3.7% formaldehyde, and 1 μg/mL Hoechst dye. Fixation was allowed to proceed for 30 min at RT, and cells were washed three times with 1X PBS, and sealed for imaging. Labeled cells were analyzed using the Cellomics Arrayscan instrument (Cellomics Inc., Pittsburgh, PA) with version 3.5 equipment and software. The ArrayScan captures fluorescent images in the 3 channels relevant to this assay (Hoechst, TRITC for Sytox staining and FITC for NBD-PE staining) and performs automated image analysis to quantify cell nuclei, the number of dead cells, and NBD-PE dye fluorescent intensity. The analysis algorithms that enable cell versus well-based detection were purchased from Cellomics Inc. and are referred to as Cell Health Profiling (CHP) and Target Activation (TA) algorithms. […] NBD-PE peak signal was defined as the maximal response.

rat hepatocytes [2] = assay: cells; assay type: cell-based; details: for IC50: 24 h treatment, read-out: Survival IC50; for % survival: average ± std dev
splenocyte = system: splenocyte; set-up: method as in PMID 16463016; details: in vitro, tested independently; cited from earlier work
dog hepatocytes [3] = assay: NBD-PE accumulation assay in dog hepatocytes; assay type: cell-based; details: for NBD-PE accumulation, control activity: 300 μM, 24 h, N = 1
Excerpt: as §1, with “Cells were incubated in a CO2 incubator for 24 h, the media was replaced with hepatocyte culture media, and the cells were incubated for an additional 24 h. Compounds were solubilized in DMSO, water, or ethanol to 1000X stock and then diluted to 1X in media. All conditions contained equal concentrations of vehicle.” left out
In a modification of the procedure described by Morelli et al., hepatocytes were treated with drugs diluted into culture media containing 12 μg/mL NBD-PE (N-(7-nitrobenz-2-oxa-1,3-diazol-4-yl)-1,2-dihexadecanoyl-sn-glycero-3-phosphoethanolamine, triethylammonium salt) for 24 hours. […] This fluorescent dye stains only cells with compromised cell membranes thereby enabling their exclusion from NBD-PE cell quantitation by the Cellomics ArrayScan instrument. […] Labeled cells were analyzed using the Cellomics Arrayscan instrument (Cellomics Inc., Pittsburgh, PA) with version 3.5 equipment and software. The ArrayScan captures fluorescent images in the 3 channels relevant to this assay (Hoechst, TRITC for Sytox staining and FITC for NBD-PE staining) and performs automated image analysis to quantify cell nuclei, the number of dead cells, and NBD-PE dye fluorescent intensity. […]

rat hepatocytes [4] = assay: NBD-PE accumulation assay in rat hepatocytes; assay type: cell-based, Han Wistar rats; details: for NBD-PE accumulation, control activity: 300 μM, N = 1
Excerpt: as §1, §2

rat hepatocytes [5] = assay: Acridine orange lysosomal staining time course in rat hepatocytes; assay type: cell-based, Han Wistar rats
rat hepatocytes [6] = assay: Mitochondrial membrane potential (JC-1 fluorescence) in rat hepatocytes; assay type: cell-based, Han Wistar rats
Excerpt: as §1
JC-1 was added to cell cultures at a concentration of 5 μg/mL for 30 minutes to allow for cellular accumulation. Media were then aspirated and replaced with fresh media containing drugs of interest without JC-1. Fluorescence was detected using a spectrofluorometer. The ratio of red to green signals was calculated and converted to % control for graphing and analysis.

[7] = system: isolated rat mitochondria; set-up: method as in PMID 17917797; details: cited from earlier work
[8] = 1-month toxicology study, comparable plasma exposures, unpublished observations
[9] = Canis lupus familiaris, Hepatocyte, 24 h
[10] = Rattus norvegicus, Hepatocyte, 24 h
[11] = preclinical toxicology studies (1-month for compound A), unpublished observations / data not shown

Structure (SMILES): COc1cc2c(c(N3CCN(C)CC3)c1)O[C@@H](C(=O)Nc1ccc(N3CCOCC3)cc1)CC2 [compound A]
- Centrilobular necrosis of liver (rat liver; [8]): only dog had concomitant centrilobular necrosis
- Centrilobular necrosis of liver (dog liver; [8]): only dog had concomitant centrilobular necrosis
- IC50 (dog hepatocytes [1]; Canis lupus familiaris, Hepatocyte): 298 ± 22 µM
- IC50 (rat hepatocytes [2]; Hepatocyte): > 450 µM

Structure (SMILES): Nc1ccc(N2CCOCC2)cc1 [compound D]
- Phospholipogenic response in splenocyte model (splenocyte): negative
- NBD-PE accumulation, control activity (dog hepatocytes [3]): 140%
- IC50 (dog hepatocytes [1]; [9]): > 300 µM
- IC50 (rat hepatocytes [2]; [10]): > 300 µM
- NBD-PE accumulation, control activity (rat hepatocytes [4]; 24 h): 101%

Structure (SMILES): COc1cc2c(c(N3CCN(C)CC3)c1)O[C@@H](C(=O)Nc1ccc(N3CCOCC3)c(F)c1)CC2 [B]
- Phospholipogenic response in splenocyte model (splenocyte): phospholipogenic
- IC50 (dog hepatocytes [1]; [9]): 153 ± 63 µM
- IC50 (rat hepatocytes [2]; [10]): > 300 µM

Structure (SMILES): Cc1ccc(N2CCN(C)CC2)c2c1CC[C@@H](NC(=O)c1ccc(N3CCOCC3)cc1)C2 [NMTMB, N-[(2R)-5-methyl-8-(4-methylpiperazin-1-yl)tetralin-2-yl]-4-morpholino-benzamide]
- AO spot count (rat hepatocytes [5]; 100 μM, up to 8 h): maintained or exceeded control levels
- AO spot count (rat hepatocytes [5]; 300 μM, by 4 h): ~0%
- Decline of AO spot count compared to control (rat hepatocytes [5]; 300 μM, within 30 minutes): ~50%
- Phospholipidosis (PLD) in vivo (rat liver; [11]): confirmed multiorgan in vivo phospholipogenics
- Phospholipidosis (PLD) in vivo (dog liver; [11]): confirmed multiorgan in vivo phospholipogenics
- Cells dead (dog hepatocytes [1]; 50 μM, 24 h): ~ 70%
- Cell death (dog hepatocytes [1]; 100 μM, 24 hr): complete cell death
- IC50 (dog hepatocytes [1]; [9]): 37 ± 13 µM
- Drop in cell survival (rat hepatocytes [2]; 100 μM, 8 h treatment): 40%
- Hepatocytes surviving (rat hepatocytes [2]; 100 μM, 24 hr): ~ 80%
- % survival (rat hepatocytes [2]; 300 μM NMTMB alone): 9.3 ± 4%
- % survival (rat hepatocytes [2]; 300 μM NMTMB cotreated with PADK): 51 ± 8.5%
- Survival compared to control (rat hepatocytes [2]; 300 μM, 2 h): 20%
- Cell death (rat hepatocytes [2]; 300 μM, 4 h): cell death was complete
- IC50 (rat hepatocytes [2]): 148 ± 41 µM
- IC50 (rat hepatocytes [2]; [10]): 159 µM
- Time to maximum hyperpolarization (rat hepatocytes [6]; 100 μM): ≤ 2 h
- Time to mitochondria hyperpolarization (rat hepatocytes [6]; 100 μM): ≤ 1 h
- Mitochondrial polarization status (rat hepatocytes [6]; 300 μM): mitochondria depolarization was observed within the first hour
- Mitochondrial polarization status with Baf cotreatment (rat hepatocytes [6]; 300 μM NMTMB plus 30 nM Baf, by 1 h): marked shift from mitochondrial depolarization to a hyperpolarized state
- NBD-PE accumulation (rat hepatocytes [4]; 50 μM, 24 h): 4 fold vehicle control
- EC50 (rat hepatocytes [4]; Hepatocyte, approximate, estimated from left-hand portion of bell-shaped curve): ~65 µM

Structure (SMILES): CO/C1=C\C(C)=C\[C@@H](C)[C@@H](O)[C@@H](C)C/C(C)=C/C=C/[C@H](OC)[C@@H]([C@@H](C)[C@@H](O)[C@H](C)[C@@]2(O)C[C@@H](O)[C@H](C)[C@@H](C(C)C)O2)OC1=O [Baf, Bafilomycin A1, reference compound]
- Increase in control NBD-PE fluorescent staining (dog hepatocytes [3]; 100 nM Baf): 2 fold
- Minimal concentration affecting mitochondrial functions (potassium uptake, swelling, loss of membrane potential, uncoupling) [7]: 50 nM
- Increase in control NBD-PE fluorescent staining (rat hepatocytes [4]; 100 nM Baf): 2 fold

Structure (SMILES): O=C(O)Cc1ccccc1Nc1c(Cl)cccc1Cl [Diclofenac, reference compound]
- Phospholipogenic response in splenocyte model (splenocyte): negative
- IC50 (dog hepatocytes [1]; [9]): 656 µM
- IC50 (rat hepatocytes [2]; [10]): 832 µM

Structure (SMILES): CCCc1cccc2c(N)c(C(=O)NCC3CC3)nnc12 [compound C]
- Phospholipogenic response in splenocyte model (splenocyte): negative
- NBD-PE accumulation, control activity (dog hepatocytes [3]): 121%
- IC50 (dog hepatocytes [1]; [9]): > 300 µM
- IC50 (rat hepatocytes [2]; [10]): > 300 µM
- NBD-PE accumulation, control activity (rat hepatocytes [4]; 24 h): 95%

Structure (SMILES): CCN(CCO)CCCC(C)Nc1ccnc2cc(Cl)ccc12 (centres unmarked) [Hydroxychloroquine, reference compound]
- IC50 (dog hepatocytes [1]): 159 µM
- IC50 (dog hepatocytes [1]; [9]): 90 µM
- IC50 (rat hepatocytes [2]): > 300 µM
- IC50 (rat hepatocytes [2]; [10]): 220 µM
- Change in survival (rat hepatocytes [2]; control condition without Baf, 24 h): 25–35%
